The text below walks through data of paper doi:10.1101/2021.12.08.471775v2 (biorxiv, 2022).

The target of this assay is α4β2Rs (rat α4β2 nAChRs) (Rattus norvegicus, UniProt P09483+P12390). It is filed as cell-based.
Chain of α4β2Rs (rat α4β2 nAChRs) (P09483 31-630): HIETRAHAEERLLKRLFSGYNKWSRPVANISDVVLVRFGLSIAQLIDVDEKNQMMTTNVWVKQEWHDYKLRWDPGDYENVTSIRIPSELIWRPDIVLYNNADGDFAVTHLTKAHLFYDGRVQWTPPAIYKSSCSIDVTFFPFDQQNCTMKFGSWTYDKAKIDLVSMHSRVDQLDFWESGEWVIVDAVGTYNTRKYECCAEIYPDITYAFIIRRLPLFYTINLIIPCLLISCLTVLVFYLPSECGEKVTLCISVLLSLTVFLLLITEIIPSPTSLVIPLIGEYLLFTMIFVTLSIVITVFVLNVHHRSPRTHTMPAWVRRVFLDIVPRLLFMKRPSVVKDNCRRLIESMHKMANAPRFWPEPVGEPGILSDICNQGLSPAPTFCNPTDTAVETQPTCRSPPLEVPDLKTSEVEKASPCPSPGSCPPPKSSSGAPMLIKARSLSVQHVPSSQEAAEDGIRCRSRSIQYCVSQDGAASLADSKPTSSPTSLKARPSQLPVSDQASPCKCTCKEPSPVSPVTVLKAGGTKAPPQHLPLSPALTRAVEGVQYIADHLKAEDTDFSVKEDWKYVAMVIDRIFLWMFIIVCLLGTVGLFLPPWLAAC
Chain of α4β2Rs (rat α4β2 nAChRs) (P12390 25-500): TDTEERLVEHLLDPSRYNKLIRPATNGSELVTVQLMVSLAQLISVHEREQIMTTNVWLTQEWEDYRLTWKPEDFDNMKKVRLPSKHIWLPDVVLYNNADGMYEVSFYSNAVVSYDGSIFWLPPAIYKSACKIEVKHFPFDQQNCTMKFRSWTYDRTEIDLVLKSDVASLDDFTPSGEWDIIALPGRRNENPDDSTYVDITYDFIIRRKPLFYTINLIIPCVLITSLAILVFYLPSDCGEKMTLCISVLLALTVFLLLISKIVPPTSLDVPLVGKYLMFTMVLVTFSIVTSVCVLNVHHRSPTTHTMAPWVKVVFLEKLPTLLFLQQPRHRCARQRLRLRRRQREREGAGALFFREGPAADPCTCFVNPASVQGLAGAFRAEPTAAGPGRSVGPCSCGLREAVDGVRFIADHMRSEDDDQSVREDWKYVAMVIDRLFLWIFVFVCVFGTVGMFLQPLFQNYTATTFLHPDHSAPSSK

One may read the Ki as a measure of affinity in units of concentration, obtained from inhibition or displacement. A lower Ki goes with higher affinity. Turning to `Fc1ncccc1OC[C@@H]1C=CCN1` [Nifene], the Ki is 0.31 nM.
